According to patent publication US5071849A, “Dihydropyrimidothiazine derivatives” (priority 1989, dated 1991):
Where two headings read alike, the source gives them in different places.

Key:
[1] = tested on: carrageen - induced oedema; test: Inhibition of carrageen-induced oedema on rats; assay type: in vivo; settings: for ED30: Rattus norvegicus, po, read-out: ID30 (dose resulting in an inhibition of 30%); for Therapeutical index: Table III, LD50 and ID30
Description: The antiinflammatory effect of the novel compounds of the invention was investigated on rats weighing 150 to 180 g. 0.1 ml of a 1 per cent carrageen suspension was injected subcutaneously into the plantar region of one of the hind paws. Rats were fasted for 12 hours and received drinking water ad libitum. One hour before treatment with the test compound animals were hydrated orally with 30 ml/kg of tap water. The test compounds or the vehicle were administered p.o. in a volume of 10 ml/kg, then two hours later carrageen was applied. The volume of the treated paw was measured by mercury-plethysmometer before and 3 hours after injection in such a way that displacement of the liquid arising from the volume alteration was indicated on a millimeter scale. The volumes of the treated paws were compared with those of the control group.

in vivo = settings: mouse, po
Description: White mice belonging to the CFLP strain (body weight 18-22 g; both male and female) are used, 10 animals for each dose. The test compound is administered orally in a volume of 20 ml/kg. […] The mice are kept in a plastic cage at room temperature. The animals get tap water and standard mouse fodder ad libitum.

Hexobarbital narcosis = Hexobarbital narcosis on mice; assay type: in vivo; settings: for ED50: Mus musculus, po, mice, p.o., 1 hour before Hexobarbital 40 mg/kg i.v., sleeping time more than 2.5 times longer than control; for Therapeutical index: Table IV, hexobarbital narcosis on mice
Description: Groups consisting of 6 mice are used for each dose. The animals are treated orally with the test compound, whereby sleeping is induced 1 hour later by administering a 40 mg/kg i.v. dose of Hexobarbital both to the test and control groups.
ED50 values are calculated from the thus-transformed data.

[2] = tested on: experimental coronaria insufficiency induced with vasopressin; test: Antianginal effect: vasopressin-induced experimental coronaria insufficiency, ECG wave T; assay type: in vivo; settings: Rattus norvegicus; rats, iv., 2 minutes prior to vasopressin
Description: Male rats of 180-220 g body weight were narcotised with chloralese-urethane (70/700 mg/kg ip.). The ECG was registered with needle electrodes in standard II leading. The experimental coronaria insufficiency was induced with vasopressin (4 NE/kg i.v.). The height of wave T in ECG was measured before and after the administration of vasopressin in both the control and treated groups. Test compounds were administered intravenously 2 minutes prior to the treatment with vasopressin.

[3] = rats, p.o., two hours before carrageen, paw volume 3 hours after injection

Row | SMILES | Therapeutical index [1] | LD50 at 336 h (in vivo) | ED30 [1, 3] | other results
1 | CC(=O)Oc1ccccc1C(=O)O [Acetylsalicylic acid, reference compound] | 6.8 | – | – | ED30 ([1]; 3 h): 200 mg/kg
2 | CCOC(=O)C1=C(C)N=C2SCCCN2C1c1ccccc1 (stereo not drawn) [Example 1, Ethyl-(6-phenyl-8-methyl-3,4-dihydro-2H,6H-pyrimido-[2,1-b][1,3]thiazine-7-carboxylate)] | – | 580 mg/kg | – | –
3 | CCOC(=O)C1=C(C)N=C2SCCCN2C1c1c(F)cccc1Cl (stereo not drawn) [Example 2, Ethyl-[6-(2-fluoro-6-chlorophenyl)-8-methyl-3,4-dihydro-2H,6H-pyrimido[2,1-b][1,3]thiazine-7-carboxylate]] | – | 170 mg/kg | – | –
4 | CCOC(=O)C1=C(C)N=C2SCCCN2C1c1ccc(Cl)c(Cl)c1 (stereo not drawn) [Example 3, Ethyl-[6-(3,4-dichlorophenyl)-8-methyl-3,4-dihydro-2H,6H-pyrimido[2,1-b][1,3]thiazine-7-carboxylate]] | – | 1000 mg/kg | – | –
5 | COC(=O)C1=C(C)N=C2SCCCN2C1c1cccc([N+](=O)[O-])c1 (stereo not drawn) [Example 4, Methyl-[6-(3-nitrophenyl)-8-methyl-3,4-dihydro-2H,6H-pyrimido[2,1-b][1,3]thiazine-7-carboxylate]] | – | 370 mg/kg | – | –
6 | CC1=C(C(=O)Nc2ccccc2)C(c2ccccc2)N2CCCSC2=N1 (stereo not drawn) [Example 5, 6-Phenyl-8-methyl-3,4-dihydro-2H,6H-pyrimido[2,1-b][1,3]thiazine-7-carboxylic anilide] | – | 700 mg/kg | – | –
7 | CC1=C(C(=O)Nc2ccccc2)C(c2c(F)cccc2Cl)N2CCCSC2=N1 (stereo not drawn) [Example 6, 6-(2-Fluoro-6-chlorophenyl)-8-methyl-3,4-dihydro-2H,6H-pyrimido[2,1-b][1,3]thiazine-7-carboxylic anilide] | – | > 1000 mg/kg | – | ED50 (Hexobarbital narcosis): 25 mg/kg; Therapeutical index (Hexobarbital narcosis): 40.0
8 | CCOC(=O)C1=C(C)N=C2SCCCN2C1c1ccc(OC)cc1 (stereo not drawn) [Example 7, Ethyl-[8-methyl-6-(4-methoxyphenyl)-3,4-dihydro2H,6H-pyrimido[2,1-b][1,3]thiazine-7-carboxylate]] | – | 600 mg/kg | – | ED50 [2]: 1.87 mg/kg
9 | COC(=O)C1=C(C)N=C2SCCCN2C1c1ccc(Cl)c([N+](=O)[O-])c1 (stereo not drawn) [Example 8] | – | 700 mg/kg | – | ED50 [2]: 1.21 mg/kg
10 | COC(=O)C1=C(C)N=C2SCC(C)CN2C1c1ccc(Cl)c([N+](=O)[O-])c1 (stereo not drawn) [Example 9] | – | > 1000 mg/kg | – | –
11 | COC(=O)C1=C(C)N=C2SCC(C)CN2C1c1cccc([N+](=O)[O-])c1 (stereo not drawn) [Example 10] | – | > 1000 mg/kg | – | ED50 (Hexobarbital narcosis): 39 mg/kg; Therapeutical index (Hexobarbital narcosis): 25.6
12 | CCOC(=O)C1=C(C)N=C2SCCCN2C1c1ccc(Br)cc1 (stereo not drawn) [Example 11, Ethyl-[6-(4-bromophenyl)-8-methyl-3,4-dihydro-2H,6H-pyrimido[2,1-b][1,3]thiazine-7-carboxylate]] | – | > 1000 mg/kg | – | ED50 (Hexobarbital narcosis): ~200 mg/kg; Therapeutical index (Hexobarbital narcosis): 5.0
13 | CCOC(=O)C1=C(c2ccccc2)N=C2SCCCN2C1c1c(F)cccc1Cl (stereo not drawn) [Example 12] | – | > 1000 mg/kg | – | –
14 | CCOC(=O)C1=C(c2ccccc2)N=C2SCCCN2C1c1ccc([N+](=O)[O-])cc1 (stereo not drawn) [Example 13, Ethyl-[8-phenyl-6-(4-nitrophenyl)-3,4-dihydro-2H,6H-pyrimido[2,1-b][1,3]thiazine-7-carboxylate]] | – | 1000 mg/kg | – | ED50 (Hexobarbital narcosis): ~200 mg/kg; Therapeutical index (Hexobarbital narcosis): 5.0
15 | COC(=O)C1=C(C)N=C2SCCCN2C1C (stereo not drawn) [Example 14, Methyl-(6,8-dimethyl-3,4-dihydro-2H,6H-pyrimido-[2,1-b][1,3]thiazine-7-carboxylate)] | 40 | 400 mg/kg | 10 mg/kg | –
16 | COC(=O)C1=C(C)N=C2SCCCN2C1c1ccc(OC)cc1 (stereo not drawn) [Example 15, Methyl-[8-methyl-6-(4-methoxyphenyl)-3,4-dihydro-2H,6H-pyrimido[2,1-b][1,3]thiazine-7-carboxylate]] | > 14.3 | > 1000 mg/kg | 70 mg/kg | –
17 | COC(=O)C1=C(C)N=C2SCCCN2C1c1ccc(Cl)c(Cl)c1 (stereo not drawn) [Example 16, Methyl-[6-(3,4-dichlorophenyl)-8-methyl-3,4-dihydro-2H,6H-pyrimido[2,1-b][1,3]thiazine-7-carboxylate]] | 8.3 | 1000 mg/kg | 120 mg/kg | ED50 [2]: ~0.81 mg/kg
18 | COC(=O)C1=C(C)N=C2SCCCN2C1c1cc(OC)c(OC)c(OC)c1 (stereo not drawn) [Example 18, Methyl-[8-methyl-6-(3,4,5-trimethoxyphenyl)-3,4-dihydro-2H,6H-pyrimido[2,1-b][1,3]thiazine-7-carboxylate]] | > 9.1 | > 1000 mg/kg | 110 mg/kg | –
19 | CCOC(=O)C1=C(c2ccccc2)N=C2SCCCN2C1c1ccc(OC)cc1 (stereo not drawn) [Example 19, Ethyl-[8-phenyl-6-(4-methoxyphenyl)-3,4-dihydro-2H,6H-pyrimido[2,1-b][1,3]thiazine-7-carboxylate]] | – | – | – | ED50 [2]: 1.45 mg/kg
20 | CCOC(=O)C1=C(C)N=C2SCCCN2C1c1ccc(N(C)C)cc1 (stereo not drawn) [Example 22, Ethyl-[6-(4-dimethylaminophenyl)-8-methyl-3,4-dihydro-2H,6H-pyrimido[2,1-b][1,3]thiazine-7-carboxylate]] | 70 | 700 mg/kg | 10 mg/kg | –
21 | COC(=O)C1=C(C)N=C2SCCCN2C1c1ccccc1OC (stereo not drawn) [Example 25, Methyl-[8-methyl-6-(2-methoxyphenyl)-3,4-dihydro-2H,6H-pyrimido[2,1-b][1,3]thiazine-7-carboxylate]] | 10-50 | 100 to 500 mg/kg | 10 mg/kg | –
22 | COc1ccc2c(c1)c(CC(=O)O)c(C)n2C(=O)c1ccc(Cl)cc1 [Indomethacin, reference compound] | 7.3 | – | – | ED30 ([1]; 3 h): 3 mg/kg
23 | CCCC(C)(COC(N)=O)COC(N)=O [Meprobamate, reference compound] | – | – | – | ED50 (Hexobarbital narcosis): 260 mg/kg; Therapeutical index (Hexobarbital narcosis): 4.2
24 | CC(=O)Nc1ccc(O)cc1 [Paracetamol, reference compound] | 5.9 | 1180 mg/kg | 200 mg/kg | –
25 | CCCCC1C(=O)N(c2ccccc2)N(c2ccccc2)C1=O [Phenylbutazone, reference compound] | – | – | 40 mg/kg | –
26 | CC(Cc1ccccc1)NCCC(c1ccccc1)c1ccccc1 (stereo not drawn) [Prenylamine, reference compound] | – | – | – | ED50 [2]: 6.5 mg/kg
